The values below come from patent publication US4093648A, “Therapeutically active benzoic acid derivatives and a process for preparing them” (Recordati S.A. Chemical and Pharmaceutical Company, priority 1975, dated 1978).

Series [1] is described as follows: LD50 determination, intraperitoneal, rats. The note with it: rat, in vivo, ip. Here is the method:
(§1) The evaluation of biological data has been carried out by the most accepted test of the cutaneous passive anaphylaxis on the rat. We have followed the method described by J. Mota on Life Science 12,917 (1963) that was appropriately modified. The LD50 determination was carried out with the common method, by administering intraperitoneally the compound to rats. The chromoglycate was used as a standard. In the first column, are listed the LD50 values (mg/Kg), in the second the ratios [formula] in the last column the ratios [formula]

The subject of series [2] is cutaneous passive anaphylaxis. In words: cutaneous passive anaphylaxis on the rat (antianaphylactic activity vs. sodium chromoglycate standard). It counts as in vivo. The conditions noted are these: for Compound activity / Standard activity: ratio to chromoglycate (standard), cutaneous passive anaphylaxis, rat.
Excerpt: The compounds of formula I and their pharmacologically compatible salts show antianaphylactic activity (which is rather remarkable for some of them) that may be successfully employed to prepare pharmaceutical formulations for human use against the allergic asthma and alimentary allergies. In order to evaluate the antianaphylactic activity, we have performed some comparison tests with sodium chromoglycate that is, at the present time, the most known and the most used antiallergic agent.
as §1

Series [3] concerns cutaneous passive anaphylaxis. The note with it: qualitative statement, no data; cited from earlier work.

The LD50 is the dose at which mortality reaches 50%. A lower LD50 goes with greater toxicity. In turn, `CCOc1ccc(NC(=O)c2cccc(C(=O)CC)c2O)cc1` [Example 2, 2-Hydroxy-3-propionyl (4-ethoxyphenyl)benzamide] displayed an LD50 in series [1] (intraperitoneally to rats) of 3000 mg/kg. Besides, in series [2], the “Compound activity / Standard activity” value is 1.20.
The corresponding values for `CCC(=O)c1cccc(C(=O)Nc2ccccc2Cl)c1O` [Example 3, 2-Hydroxy-3-propionyl (o-chlorophenyl) benzamide] are 3000 mg/kg and 1.19.
The matching figures for `CCC(=O)c1cccc(C(=O)Nc2cccc(Cl)c2)c1O` [Example 4, 2-Hydroxy-3-propionyl (m-chlorophenyl) benzamide]: 2700 mg/kg and 1.12.
For the compound `CCC(=O)c1cccc(C(=O)O)c1OCCN(CC)CC` [Example 7, 2(β-diethylamino)ethoxy-3-propionylbenzoic Acid], the LD50 in series [1] turned out to be 3000 mg/kg. The antianaphylactic activity result in series [2] (qualitative statement) was “most active product of this series”. Further, the “Compound activity / Standard activity” value in series [2] amounted to 1.22.
With `O=C(O)c1cc(=O)c2c(OCC(O)COc3cccc4oc(C(=O)O)cc(=O)c34)cccc2o1` [chromoglycate, sodium chromoglycate], the “activity when administered per os (chromoglycate)” value in series [3] was “inactive”.
